Read-outs that look alike come from different tables or passages of the source. Square brackets hold non-standard residues; d marks the D form. Peptide text beside a SMILES is read from it. Cit = NC(=O)NCCC[C@H](N)C(=O)O
Tests used:
HLA-DRB1*01:01 = target: T1, HLA-DRB1*01:01 (Homo sapiens, UniProt P01903+P01911, A100R/D57E/F55L/F60I/F76Y/I96L/L162R/M171V/P40L/Q125E/R42F/V115G/Y59C); assay: HLA class II peptide binding, inhibition of radiolabeled peptide binding to purified MHC
T1 construct: EBV transformed homozygous cell lines were used as sources of MHC molecules; endogenous in cells; host or cells: EBV transformed homozygous cell lines

HLA-DRB1*04:01 = target: T2, HLA-DRB1*04:01 (Homo sapiens, UniProt P01903+P01911, A100K/A169T/F76Y/I96L/K127E/L162R/M171V/N62H/P40V/Q125Y/R42H/S133A/S149N/S66Y/V115G/V209L/W38E); assay: as above
T2 construct: EBV transformed homozygous cell lines were used as sources of MHC molecules; endogenous in cells; host or cells: EBV transformed homozygous cell lines

[1] = citrullinated 15-mer (X), purified MHC, inhibition of radiolabeled peptide binding, dash = IC50 >40,000 nM, read-out: DRB1*01:01 binding capacity, Cit peptide (IC50 nM)
[2] = citrullinated 15-mer (X), purified MHC, inhibition of radiolabeled peptide binding, dash = IC50 >40,000 nM, read-out: DRB1*04:01 binding capacity, Cit peptide (IC50 nM)
[3] = citrullinated peptide as listed (X at Cit position), read-out: DRB1*01:01 binding capacity Cit peptide (IC50 nM)
[4] = citrullinated peptide as listed (X at Cit position), read-out: DRB1*04:01 binding capacity Cit peptide (IC50 nM)
[5] = citrullinated 15-mer peptide (X = citrulline), purified HLA-DRB1*01:01, read-out: DRB1*01:01 binding capacity, Cit peptide (IC50 nM)
[6] = citrullinated 15-mer peptide (X = citrulline), purified HLA-DRB1*04:01, read-out: DRB1*04:01 binding capacity, Cit peptide (IC50 nM)

Compound	IC50 (HLA-DRB1*01:01; [1])	IC50 (HLA-DRB1*04:01; [2])	other results
CC(C)C[C@H](NC(=O)[C@H](CC(C)C)NC(=O)[C@H](CCCNC(=N)N)NC(=O)[C@@H](NC(=O)CNC(=O)[C@@H]1CCCN1C(=O)[C@@H](NC(=O)[C@H](CO)NC(=O)[C@H](CO)NC(=O)[C@H](CCCNC(N)=O)NC(=O)[C@H](CC(C)C)NC(=O)[C@H](CCCNC(=N)N)NC(=O)[C@@H](NC(=O)[C@H](C)NC(=O)[C@@H](N)CO)C(C)C)C(C)C)C(C)C)C(=O)O [SAVRLXSSVPGVRLL] (H-SAVRL[Cit]SSVPGVRLL-OH)	0.7 nM	11 nM	–
CC(C)C[C@H](NC(=O)[C@H](CC(C)C)NC(=O)[C@H](CCCNC(=N)N)NC(=O)[C@@H](NC(=O)CNC(=O)[C@@H]1CCCN1C(=O)[C@@H](NC(=O)[C@H](CO)NC(=O)[C@H](CO)NC(=O)[C@H](CCCNC(=N)N)NC(=O)[C@H](CC(C)C)NC(=O)[C@H](CCCNC(N)=O)NC(=O)[C@@H](NC(=O)[C@H](C)NC(=O)[C@@H](N)CO)C(C)C)C(C)C)C(C)C)C(=O)O [SAVXLRSSVPGVRLL] (H-SAV[Cit]LRSSVPGVRLL-OH)	19 nM	1050 nM	–
CC(C)C[C@H](NC(=O)[C@H](C)NC(=O)[C@H](C)NC(=O)[C@@H](NC(=O)[C@H](CC(C)C)NC(=O)[C@H](CC(=O)O)NC(=O)[C@@H]1CCCN1C(=O)[C@H](CCCCN)NC(=O)[C@@H](N)CO)[C@@H](C)O)C(=O)N[C@@H](CCCNC(=N)N)C(=O)N[C@@H](CC(=O)O)C(=O)N[C@H](C(=O)N[C@@H](CCCNC(N)=O)C(=O)N[C@@H](CCC(N)=O)C(=O)N[C@@H](CCC(N)=O)C(=O)O)C(C)C [SKPDLTAALRDVXQQ] (H-SKPDLTAALRDV[Cit]QQ-OH)	5590 nM	29700 nM	–
CC(C)C[C@H](NC(=O)[C@H](C)NC(=O)[C@H](C)NC(=O)[C@@H](NC(=O)[C@H](CC(C)C)NC(=O)[C@H](CC(=O)O)NC(=O)[C@@H]1CCCN1C(=O)[C@H](CCCCN)NC(=O)[C@@H](N)CO)[C@@H](C)O)C(=O)N[C@@H](CCCNC(N)=O)C(=O)N[C@@H](CC(=O)O)C(=O)N[C@H](C(=O)N[C@@H](CCCNC(=N)N)C(=O)N[C@@H](CCC(N)=O)C(=O)N[C@@H](CCC(N)=O)C(=O)O)C(C)C [SKPDLTAALXDVRQQ] (H-SKPDLTAAL[Cit]DVRQQ-OH)	1370 nM	30300 nM	–
CC[C@H](C)[C@H](NC(=O)[C@H](CCC(N)=O)NC(=O)[C@H](CC(N)=O)NC(=O)[C@H](CC(N)=O)NC(=O)[C@H](CC(C)C)NC(=O)[C@@H](N)CO)C(=O)N[C@@H](CCC(=O)O)C(=O)N[C@@H](CO)C(=O)N[C@H](C(=O)N[C@@H](CCCNC(N)=O)C(=O)N[C@@H](CO)C(=O)N1CCC[C@H]1C(=O)N[C@@H](CCC(=O)O)C(=O)NCC(=O)N[C@@H](CO)C(=O)O)[C@@H](C)CC [SLNNQIESIXSPEGS] (H-SLNNQIESI[Cit]SPEGS-OH)	–	–	IC50 (HLA-DRB1*01:01; [3]): 6.5 nM; IC50 (HLA-DRB1*04:01; [4]): 18 nM
CC(C)C[C@H](NC(=O)[C@@H](N)CO)C(=O)N[C@@H](Cc1ccc(O)cc1)C(=O)N[C@@H](C)C(=O)N[C@@H](CO)C(=O)N[C@@H](CO)C(=O)N1CCC[C@H]1C(=O)NCC(=O)NCC(=O)N[C@H](C(=O)N[C@@H](Cc1ccc(O)cc1)C(=O)N[C@@H](C)C(=O)N[C@H](C(=O)N[C@@H](CCCNC(N)=O)C(=O)N[C@@H](CO)C(=O)O)[C@@H](C)O)C(C)C [SLYASSPGGVYATXS]	16 nM	1280 nM	–
CC[C@H](C)[C@H](NC(=O)[C@H](CCC(=O)O)NC(=O)[C@@H](NC(=O)[C@H](CC(=O)O)NC(=O)[C@H](CC(N)=O)NC(=O)[C@@H](N)CO)C(C)C)C(=O)N[C@@H](CCCNC(=N)N)C(=O)N[C@@H](C)C(=O)N[C@@H](CCC(=O)O)C(=O)NCC(=O)N[C@@H](CC(N)=O)C(=O)N[C@@H](CO)C(=O)N[C@@H](CCCNC(N)=O)C(=O)N[C@@H](Cc1ccccc1)C(=O)N[C@H](C(=O)O)[C@@H](C)O [SNDVEIRAEGNSXFT] (H-SNDVEIRAEGNS[Cit]FT-OH)	–	–	IC50 (HLA-DRB1*01:01; [3]): 92 nM; IC50 (HLA-DRB1*04:01; [4]): 178 nM
CC[C@H](C)[C@H](NC(=O)[C@H](CCC(=O)O)NC(=O)[C@@H](NC(=O)[C@H](CC(=O)O)NC(=O)[C@H](CC(N)=O)NC(=O)[C@@H](N)CO)C(C)C)C(=O)N[C@@H](CCCNC(N)=O)C(=O)N[C@@H](C)C(=O)N[C@@H](CCC(=O)O)C(=O)NCC(=O)N[C@@H](CC(N)=O)C(=O)N[C@@H](CO)C(=O)N[C@@H](CCCNC(=N)N)C(=O)N[C@@H](Cc1ccccc1)C(=O)N[C@H](C(=O)O)[C@@H](C)O [SNDVEIXAEGNSRFT] (H-SNDVEI[Cit]AEGNSRFT-OH)	–	–	IC50 (HLA-DRB1*01:01; [3]): 1520 nM; IC50 (HLA-DRB1*04:01; [4]): 929 nM
CC(C)C[C@H](NC(=O)[C@H](CCCNC(N)=O)NC(=O)[C@@H](NC(=O)[C@H](C)NC(=O)[C@H](CO)NC(=O)[C@H](CO)NC(=O)[C@H](CCCNC(=N)N)NC(=O)[C@@H](NC(=O)[C@H](C)NC(=O)[C@H](Cc1ccc(O)cc1)NC(=O)[C@@H](NC(=O)CNC(=O)CNC(=O)[C@@H]1CCCN1C(=O)[C@@H](N)CO)C(C)C)[C@@H](C)O)C(C)C)C(=O)O [SPGGVYATRSSAVXL] (H-SPGGVYATRSSAV[Cit]L-OH)	7.6 nM	497 nM	–
CC(C)C[C@H](NC(=O)[C@H](CCCNC(=N)N)NC(=O)[C@@H](NC(=O)[C@H](C)NC(=O)[C@H](CO)NC(=O)[C@H](CO)NC(=O)[C@H](CCCNC(N)=O)NC(=O)[C@@H](NC(=O)[C@H](C)NC(=O)[C@H](Cc1ccc(O)cc1)NC(=O)[C@@H](NC(=O)CNC(=O)CNC(=O)[C@@H]1CCCN1C(=O)[C@@H](N)CO)C(C)C)[C@@H](C)O)C(C)C)C(=O)O [SPGGVYATXSSAVRL] (H-SPGGVYAT[Cit]SSAVRL-OH)	6.6 nM	329 nM	–
CC(C)C[C@H](NC(=O)[C@H](CO)NC(=O)[C@H](Cc1ccc(O)cc1)NC(=O)[C@@H](NC(=O)[C@H](CCCNC(N)=O)NC(=O)[C@@H](NC(=O)[C@H](CO)NC(=O)[C@@H](NC(=O)[C@@H](NC(=O)[C@@H](NC(=O)[C@H](Cc1ccc(O)cc1)NC(=O)[C@H](CO)NC(=O)[C@H](CCCNC(=N)N)NC(=O)[C@H](CO)NC(=O)[C@@H](N)CO)C(C)C)[C@@H](C)O)[C@@H](C)O)[C@@H](C)O)[C@@H](C)O)C(=O)O [SSRSYVTTSTXTYSL] (H-SSRSYVTTST[Cit]TYSL-OH)	85 nM	109 nM	–
CC(C)C[C@H](NC(=O)[C@H](CO)NC(=O)[C@H](Cc1ccc(O)cc1)NC(=O)[C@@H](NC(=O)[C@H](CCCNC(=N)N)NC(=O)[C@@H](NC(=O)[C@H](CO)NC(=O)[C@@H](NC(=O)[C@@H](NC(=O)[C@@H](NC(=O)[C@H](Cc1ccc(O)cc1)NC(=O)[C@H](CO)NC(=O)[C@H](CCCNC(N)=O)NC(=O)[C@H](CO)NC(=O)[C@@H](N)CO)C(C)C)[C@@H](C)O)[C@@H](C)O)[C@@H](C)O)[C@@H](C)O)C(=O)O [SSXSYVTTSTRTYSL] (H-SS[Cit]SYVTTSTRTYSL-OH)	93 nM	357 nM	–
CC(C)C[C@H](NC(=O)[C@H](CO)NC(=O)[C@H](CCC(N)=O)NC(=O)[C@@H](NC(=O)[C@H](CCC(N)=O)NC(=O)[C@H](CCCNC(N)=O)NC(=O)[C@H](CCCNC(=N)N)NC(=O)[C@H](Cc1ccc(O)cc1)NC(=O)[C@H](CCC(=O)O)NC(=O)[C@@H](NC(=O)[C@@H](N)CO)[C@@H](C)O)C(C)C)C(=O)N[C@H](C(=O)N[C@@H](CS)C(=O)N[C@@H](CCC(=O)O)C(=O)N[C@H](C(=O)O)C(C)C)[C@@H](C)O [STEYRXQVQSLTCEV] (H-STEYR[Cit]QVQSLTCEV-OH)	–	–	IC50 (HLA-DRB1*01:01; [5]): 158 nM; IC50 (HLA-DRB1*04:01; [6]): 860 nM
CC(C)C[C@H](NC(=O)[C@H](CO)NC(=O)[C@H](CCC(N)=O)NC(=O)[C@@H](NC(=O)[C@H](CCC(N)=O)NC(=O)[C@H](CCCNC(=N)N)NC(=O)[C@H](CCCNC(N)=O)NC(=O)[C@H](Cc1ccc(O)cc1)NC(=O)[C@H](CCC(=O)O)NC(=O)[C@@H](NC(=O)[C@@H](N)CO)[C@@H](C)O)C(C)C)C(=O)N[C@H](C(=O)N[C@@H](CS)C(=O)N[C@@H](CCC(=O)O)C(=O)N[C@H](C(=O)O)C(C)C)[C@@H](C)O [STEYXRQVQSLTCEV] (H-STEY[Cit]RQVQSLTCEV-OH)	–	–	IC50 (HLA-DRB1*01:01; [5]): 97 nM; IC50 (HLA-DRB1*04:01; [6]): 1510 nM
CC(C)C[C@H](NC(=O)[C@H](C)NC(=O)[C@H](C)NC(=O)[C@@H](N)[C@@H](C)O)C(=O)N[C@@H](CCCNC(=N)N)C(=O)N[C@@H](CC(=O)O)C(=O)N[C@H](C(=O)N[C@@H](CCCNC(N)=O)C(=O)N[C@@H](CCC(N)=O)C(=O)N[C@@H](CCC(N)=O)C(=O)N[C@@H](Cc1ccc(O)cc1)C(=O)N[C@@H](CCC(=O)O)C(=O)N[C@@H](CO)C(=O)N[C@H](C(=O)N[C@@H](C)C(=O)O)C(C)C)C(C)C [TAALRDVXQQYESVA] (H-TAALRDV[Cit]QQYESVA-OH)	896 nM	7160 nM	–
CC(C)C[C@H](NC(=O)[C@H](C)NC(=O)[C@H](C)NC(=O)[C@@H](N)[C@@H](C)O)C(=O)N[C@@H](CCCNC(N)=O)C(=O)N[C@@H](CC(=O)O)C(=O)N[C@H](C(=O)N[C@@H](CCCNC(=N)N)C(=O)N[C@@H](CCC(N)=O)C(=O)N[C@@H](CCC(N)=O)C(=O)N[C@@H](Cc1ccc(O)cc1)C(=O)N[C@@H](CCC(=O)O)C(=O)N[C@@H](CO)C(=O)N[C@H](C(=O)N[C@@H](C)C(=O)O)C(C)C)C(C)C [TAALXDVRQQYESVA] (H-TAAL[Cit]DVRQQYESVA-OH)	956 nM	8760 nM	–

Reference: article PMC5421785, “Citrullination only infrequently impacts peptide binding to HLA class II MHC” (PLoS ONE, 2017)
